According to patent US8088927B2, “Fungicide N-cycloalkyl-benzyl-amide derivatives” (Bayer Cropscience AG, priority 2006, dated 2012):

Experiment: log P determination by HPLC on reversed-phase column (C 18), EEC Directive 79/831 Annex V.A8
Type: physicochemical
Details: HPLC on reversed-phase column (C 18)
Method: Temperature: 40° C.; Mobile phases: 0.1% aqueous formic acid and acetonitrile; linear gradient from 10% acetonitrile to 90% acetonitrile.
Calibration was carried out using unbranched alkan-2-ones (comprising 3 to 16 carbon atoms) with known log P values (determination of the log P values by the retention times using linear interpolation between two successive alkanones).

LogP | SMILES
4.19 | Cc1nc(C(F)(F)F)c(C(=O)N(Cc2ccc(Cl)cc2Cl)C2CC2)s1 [Compound 168]
3.74 | Cc1nc(C(F)F)c(C(=O)N(Cc2ccc(Cl)cc2Cl)C2CC2)s1 [Compound 169]
4.52 | Cc1nc(C(F)(F)F)c(C(=O)N(Cc2c(Cl)cc(Cl)cc2Cl)C2CC2)s1 [Compound 170]
4.1 | Cc1nc(C(F)F)c(C(=O)N(Cc2c(Cl)cc(Cl)cc2Cl)C2CC2)s1 [Compound 171]
3.37 | Cc1nc(C(F)F)c(C(=O)N(Cc2ccc(C(F)(F)F)cc2)C2CC2)s1 [Compound 172]
3.9 | Cc1nc(C(F)F)c(C(=O)N(C2CC2)C(C)c2ccc(Cl)cc2Cl)s1 (stereo not drawn) [Compound 173]
3.61 | Cc1nc(C(F)F)c(C(=O)N(C2CC2)C(C#N)c2ccc(Cl)cc2Cl)s1 (stereo not drawn) [Compound 209]
3.14 | Cc1nc(C(F)F)c(C(=O)N(C2CC2)C(C#N)c2c(Cl)cccc2Cl)s1 (stereo not drawn) [Compound 213]
3.04 | Cc1nn(C)c(F)c1C(=O)N(Cc1ccc(Cl)cc1Cl)C1CC1 [Compound 236]
2.8 | Cc1nn(C)c(F)c1C(=O)N(Cc1ccc(C(F)(F)F)cc1)C1CC1 [Compound 237, N-(4-trifluoromethyl-benzyl)-N-cyclopropyl-5-fluoro-1,3-dimethyl-1H-pyrazole-4-carboxamide]
3.32 | Cc1nn(C)c(F)c1C(=O)N(Cc1c(Cl)cc(Cl)cc1Cl)C1CC1 [Compound 238]
3.27 | Cn1cc(C(=O)N(Cc2ccc(Cl)cc2Cl)C2CC2)c(C(F)F)n1 [Compound 241]
2.98 | Cn1cc(C(=O)N(Cc2ccc(C(F)(F)F)cc2)C2CC2)c(C(F)F)n1 [Compound 242]
3.46 | Cn1cc(C(=O)N(Cc2c(Cl)cc(Cl)cc2Cl)C2CC2)c(C(F)F)n1 [Compound 243]
3.37 | Cn1cc(C(=O)N(Cc2ccc(Oc3ccccc3)cc2)C2CC2)c(C(F)F)n1 [Compound 244]
3.31 | CC(c1ccc(Cl)cc1Cl)N(C(=O)c1cn(C)nc1C(F)F)C1CC1 (stereo not drawn) [Compound 245]
3.27 | CC(c1ccc(C(F)(F)F)cc1)N(C(=O)c1cn(C)nc1C(F)F)C1CC1 (stereo not drawn) [Compound 246]
2.81 | COc1nn(C)cc1C(=O)N(Cc1ccc(Cl)cc1Cl)C1CC1 [Compound 251]
3.58 | Cn1cc(C(=O)N(Cc2ccc(Cl)cc2Cl)C2CC2)c(C(F)(F)F)n1 [Compound 252]
3.22 | CCOc1nn(C)cc1C(=O)N(Cc1ccc(Cl)cc1Cl)C1CC1 [Compound 253]
3.15 | Cn1cc(C(=O)N(Cc2ccc(Cl)cc2Cl)C2CC2)c(I)n1 [Compound 254]

LogP | SMILES
2.97 | COc1nn(C)cc1C(=O)N(Cc1c(Cl)cc(Cl)cc1Cl)C1CC1 [Compound 255]
3.78 | Cn1cc(C(=O)N(Cc2c(Cl)cc(Cl)cc2Cl)C2CC2)c(C(F)(F)F)n1 [Compound 256]
3.35 | CCOc1nn(C)cc1C(=O)N(Cc1c(Cl)cc(Cl)cc1Cl)C1CC1 [Compound 257]
3.34 | Cn1cc(C(=O)N(Cc2c(Cl)cc(Cl)cc2Cl)C2CC2)c(I)n1 [Compound 258]
2.61 | COc1nn(C)cc1C(=O)N(Cc1ccc(C(F)(F)F)cc1)C1CC1 [Compound 259]
3.29 | Cn1cc(C(=O)N(Cc2ccc(C(F)(F)F)cc2)C2CC2)c(C(F)(F)F)n1 [Compound 260]
2.92 | CCOc1nn(C)cc1C(=O)N(Cc1ccc(C(F)(F)F)cc1)C1CC1 [Compound 261]
2.92 | Cn1cc(C(=O)N(Cc2ccc(C(F)(F)F)cc2)C2CC2)c(I)n1 [Compound 262]
3.19 | Cc1nn(C)c(F)c1C(=O)N(C1CC1)C(C)c1ccc(Cl)cc1Cl (stereo not drawn) [Compound 263]
2.83 | COc1nn(C)cc1C(=O)N(C1CC1)C(C)c1ccc(Cl)cc1Cl (stereo not drawn) [Compound 264]
3.19 | CCOc1nn(C)cc1C(=O)N(C1CC1)C(C)c1ccc(Cl)cc1Cl (stereo not drawn) [Compound 265]
3.22 | CC(c1ccc(Cl)cc1Cl)N(C(=O)c1cn(C)nc1I)C1CC1 (stereo not drawn) [Compound 266]
2.57 | COC(=O)C(c1ccccc1Cl)N(C(=O)c1c(C)nn(C)c1F)C1CC1 (stereo not drawn) [Compound 383]
3.15 | Cc1nn(C)c(F)c1C(=O)N(C1CC1)C(C#N)c1ccc(Cl)cc1Cl (stereo not drawn) [Compound 385]
3.53 | CCC(c1ccc(Cl)cc1Cl)N(C(=O)c1c(C)nn(C)c1F)C1CC1 (stereo not drawn) [Compound 386]
2.66 | Cc1nn(C)c(F)c1C(=O)N(Cc1cccc(Br)c1)C1CC1 [Compound 412]
2.67 | Cc1nn(C)c(F)c1C(=O)N(Cc1ccc(Br)cc1)C1CC1 [Compound 422]
2.96 | COC(c1ccc(Cl)cc1Cl)N(C(=O)c1c(C)nn(C)c1F)C1CC1 (stereo not drawn) [Compound 500]
2.40 | Cn1cnc(C(=O)N(Cc2c(Cl)cc(Cl)cc2Cl)C2CC2)c1 [Compound 503]
2.4 | CCn1nc(C)c(Br)c1C(=O)N(Cc1c(Cl)cc(Cl)cc1Cl)C1CC1 [Compound 541]

Same assay, conditions: HPLC, C 18, 40° C., 0.1% aqueous formic acid and acetonitrile gradient

LogP | SMILES
3.77 | Cc1occc1C(=O)N(Cc1ccc(Cl)cc1Cl)C1CC1 [Compound 11]
4.6 | Cc1cc(C(=O)N(Cc2ccc(Cl)cc2Cl)C2CC2)c(C(F)(F)F)o1 [Compound 12]
4.09 | Cc1occc1C(=O)N(Cc1c(Cl)cc(Cl)cc1Cl)C1CC1 [Compound 13]
4.91 | Cc1cc(C(=O)N(Cc2c(Cl)cc(Cl)cc2Cl)C2CC2)c(C(F)(F)F)o1 [Compound 14]
3.43 | Cc1occc1C(=O)N(Cc1ccc(C(F)(F)F)cc1)C1CC1 [Compound 15]
4.18 | Cc1cc(C(=O)N(Cc2ccc(C(F)(F)F)cc2)C2CC2)c(C(F)(F)F)o1 [Compound 16]
4.48 | O=C(c1sccc1I)N(Cc1ccc(Cl)cc1Cl)C1CC1 [Compound 58]
4.86 | O=C(c1sccc1I)N(Cc1c(Cl)cc(Cl)cc1Cl)C1CC1 [Compound 59]
4.04 | O=C(c1sccc1I)N(Cc1ccc(C(F)(F)F)cc1)C1CC1 [Compound 60]
3.88 | Cn1cc(C(=O)N(Cc2ccc(Cl)cc2Cl)C2CC2)c(C(F)(F)F)c1 [Compound 98]
4.08 | Cn1cc(C(=O)N(Cc2c(Cl)cc(Cl)cc2Cl)C2CC2)c(C(F)(F)F)c1 [Compound 99]
3.55 | Cn1cc(C(=O)N(Cc2ccc(C(F)(F)F)cc2)C2CC2)c(C(F)(F)F)c1 [Compound 100]

Same assay, conditions: reversed-phase HPLC column (C 18); HPLC, C 18, 40° C., 0.1% aqueous formic acid and acetonitrile gradient

chromatographic logP | SMILES
2.8 | Cc1nn(C)c(F)c1C(=O)N(Cc1ccc(C(F)(F)F)cc1)C1CC1 [Compound 237, N-(4-trifluoromethyl-benzyl)-N-cyclopropyl-5-fluoro-1,3-dimethyl-1H-pyrazole-4-carboxamide]
